Laboratory results as given in patent US20170121315A1, “HETEROBICYCLICALLY SUBSTITUTED 4-OXOBUTANE ACID DERIVATIVES AND USE THEREOF” (priority 2014, published 2017).

Legend:
Assay type in all cases: biochemical
MMP-14 = biological target: T1, MMP-14 (Homo sapiens, UniProt P50281); assay: In vitro MMP-14 inhibition test; conditions: human MMP-14
T1 construct: purchased R&D Systems 918-MP
Source text: (§1) The MMP-mediated amidolytic cleavage of a suitable peptide substrate leads to an increase in fluorescent light here too. The signal intensity of the fluorescent light is directly proportional to the enzyme activity. The active concentration of a test compound at which half the enzyme is inhibited (50% signal intensity of the fluorescent light) is reported as the IC50 value.
Recombinant MMP-14 (R&D Systems, 918-MP) is enzymatically activated in accordance with the manufacturer's instructions using recombinant furin (R&D Systems, 1503-SE). 1 μl of the test compound to be analysed (as a solution in DMSO, suitable concentrations e.g. 1 nM to 30 μM) is pipetted into 24 μl of activated enzyme (final concentration e.g. 0.5 nM) in reaction buffer (50 mM Tris/HCl pH 7.5, 10 mM CaCl2, 150 mM NaCl, 0.05% Brij®-35) in a white 384-hole microtiter plate (MTP). The enzymatic reaction is started by adding the intramolecularly quenched Mca-Lys-Pro-Leu-Gly-Leu-Dpa(Dnp)-Ala-Arg-NH2 substrate (final concentration e.g. 5 μM; R&D Systems, ES-010), so as to result in a total test volume of 50 μl. The course of the MMP-14 reaction is measured by measuring the fluorescence intensity (excitation 320 nm, emission 410 nm) over a suitable period of time (e.g. over 120 min at a temperature of 32° C.).

MMP-10 = biological target: T2, MMP-10 (Homo sapiens, UniProt P09238); assay: In vitro MMP-10 inhibition test; conditions: human MMP-10
T2 construct: purchased R&D Systems 910-MP
T2 sequence (P09238 99-476): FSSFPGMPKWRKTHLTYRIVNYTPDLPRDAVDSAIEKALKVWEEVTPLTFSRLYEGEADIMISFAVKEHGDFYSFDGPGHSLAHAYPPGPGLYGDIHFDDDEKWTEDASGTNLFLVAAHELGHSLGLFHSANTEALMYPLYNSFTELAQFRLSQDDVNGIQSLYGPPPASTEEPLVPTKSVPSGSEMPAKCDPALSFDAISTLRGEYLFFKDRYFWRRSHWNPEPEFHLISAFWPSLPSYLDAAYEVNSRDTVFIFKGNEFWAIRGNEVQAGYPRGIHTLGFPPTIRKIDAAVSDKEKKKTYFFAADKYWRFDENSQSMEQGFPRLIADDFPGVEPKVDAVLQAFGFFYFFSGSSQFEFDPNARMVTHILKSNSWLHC
Source text: as §1
(§2) Recombinant MMP-10 (R&D Systems, 910-MP) is chemically activated in accordance with the manufacturer's instructions using APMA. 1 μl of the test compound to be analysed (as a solution in DMSO, suitable concentrations e.g. 1 nM to 30 μM) is pipetted into 24 μl of activated enzyme (final concentration e.g. 2 nM) in reaction buffer (50 mM Tris/HCl pH 7.5, 10 mM CaCl2, 150 mM NaCl, 0.05% Brij®-35) in a white 384-hole microtiter plate (MTP). The enzymatic reaction is started by adding the intramolecularly quenched Mca-Arg-Pro-Lys-Pro-Val-Glu-Nval-Trp-Arg-Lys(Dnp)-NH2 substrate (final concentration e.g. 10 μM; R&D Systems, ES-002), so as to result in a total test volume of 50 μl. The course of the MMP-10 reaction is measured by measuring the fluorescence intensity (excitation 320 nm, emission 410 nm) over a suitable period of time (e.g. over 120 min at a temperature of 32° C.).

[1] = biological target: T3, human macrophage elastase (HME/hMMP-12) (Homo sapiens, UniProt P39900); assay: In vitro HME inhibition test (standard or high-sensitivity); conditions: in some cases mean values, rounded to two significant figures
T3 construct: purchased R&D Systems 917-MP
T3 sequence (P39900 106-470): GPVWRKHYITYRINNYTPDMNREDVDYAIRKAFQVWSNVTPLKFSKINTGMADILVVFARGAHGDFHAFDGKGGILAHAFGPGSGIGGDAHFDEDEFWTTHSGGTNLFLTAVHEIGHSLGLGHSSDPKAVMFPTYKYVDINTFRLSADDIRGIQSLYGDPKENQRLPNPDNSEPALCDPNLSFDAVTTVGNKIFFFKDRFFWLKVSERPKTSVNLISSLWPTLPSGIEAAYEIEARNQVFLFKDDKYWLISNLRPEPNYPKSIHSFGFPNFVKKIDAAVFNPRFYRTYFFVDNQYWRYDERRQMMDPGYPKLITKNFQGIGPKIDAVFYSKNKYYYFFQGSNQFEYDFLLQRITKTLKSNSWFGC
Procedure, shortened: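 Autoactivated HME (0.5 nM; high-sensitivity format 0.05 nM, ~16 h) with 5 μM quenched Mca-PLGLEEA-Dap(Dnp)-NH2 substrate in HEPES pH 7.4, NaCl, CaCl2, ZnCl2, EDTA, Brij buffer, 2 h at 37° C. Fluorescence at ex 323/em 393 nm; IC50 from signal versus concentration.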

MMP-2 = biological target: T4, MMP-2 (Homo sapiens, UniProt P08253); assay: In vitro MMP-2 inhibition test; conditions: human MMP-2
T4 construct: purchased R&D Systems 902-MP
T4 sequence (P08253 110-660): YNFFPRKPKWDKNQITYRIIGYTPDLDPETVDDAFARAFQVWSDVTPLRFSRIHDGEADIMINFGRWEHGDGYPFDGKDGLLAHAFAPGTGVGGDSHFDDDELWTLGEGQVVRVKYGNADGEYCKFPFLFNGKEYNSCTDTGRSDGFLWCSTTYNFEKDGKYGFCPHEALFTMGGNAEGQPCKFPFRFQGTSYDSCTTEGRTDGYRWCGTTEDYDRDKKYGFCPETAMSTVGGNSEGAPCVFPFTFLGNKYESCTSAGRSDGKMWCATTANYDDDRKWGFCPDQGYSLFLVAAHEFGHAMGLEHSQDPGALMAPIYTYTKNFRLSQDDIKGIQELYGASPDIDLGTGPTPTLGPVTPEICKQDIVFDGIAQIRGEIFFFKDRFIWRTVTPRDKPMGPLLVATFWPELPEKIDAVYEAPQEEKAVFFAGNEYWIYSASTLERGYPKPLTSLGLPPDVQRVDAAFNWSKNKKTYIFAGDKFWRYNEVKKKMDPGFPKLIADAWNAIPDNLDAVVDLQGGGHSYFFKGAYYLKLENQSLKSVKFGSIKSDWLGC
Source text: as §1
as §2, with “MMP-2” for “MMP-10”, “902-MP)” for “910-MP)”, “Mca-Pro-Leu-Gly-Leu-Dpa(Dnp)-Ala-Arg-NH2” for “Mca-Arg-Pro-Lys-Pro-Val-Glu-Nval-Trp-Arg-Lys(Dnp)-NH2”, “ES-001),” for “ES-002),”

IC50 (MMP-14) [µM] | IC50 (MMP-10) [µM] | IC50 [1] [nM] | IC50 (MMP-2) [µM] | SMILES
> 40 | 28 | 2.6 | > 40 | O=C(CC(CCn1nnc2ccccc2c1=O)C(=O)O)c1cc2cc(OCCc3ccccc3Cl)ccc2o1 (racemic) [Example 1, (+/−)-4-{5-[2-(2-Chlorophenyl)ethoxy]-1-benzofur-2-yl}-4-oxo-2-[2-(4-oxo-1,2,3-benzotriazin-3(4H)-yl)ethyl]butanoic acid]
> 40 | 16 | 2.6 | 4.6 | O=C(CC(CCn1nnc2ccccc2c1=O)C(=O)O)c1cc2cc(OCCc3ccc(Cl)cc3)ccc2o1 (racemic) [Example 2, (+/−)-4-{5-[2-(4-Chlorophenyl)ethoxy]-1-benzofur-2-yl}-4-oxo-2-[2-(4-oxo-1,2,3-benzotriazin-3(4H)-yl)ethyl]butanoic acid]
34 | 34 | 2.1 | 5 | O=C(CC(CCn1nnc2ccccc2c1=O)C(=O)O)c1cc2cc(OCC3CCOCC3)ccc2o1 (racemic) [Example 5, (+/−)-4-Oxo-2-[2-(4-oxo-1,2,3-benzotriazin-3(4H)-yl)ethyl]-4-[5-(tetrahydro-2H-pyran-4-ylmethoxy)-1-benzofur-2-yl]butanoic acid]
37 | 7 | 4 | 0.43 | O=C(CC(CCn1nnc2ccccc2c1=O)C(=O)O)c1cc2cc(OCCC3CCOCC3)ccc2o1 (racemic) [Example 6, (+/−)-4-Oxo-2-[2-(4-oxo-1,2,3-benzotriazin-3(4H)-yl)ethyl]-4-{5-[2-(tetrahydro-2H-pyran-4-yl)ethoxy]-1-benzofur-2-yl}butanoic acid]
> 40 | 9.3 | 2.8 | 0.92 | O=C(CC(CCn1nnc2ccccc2c1=O)C(=O)O)c1cc2cc(OCCC3CCCC3)ccc2o1 (racemic) [Example 7, (+/−)-4-[5-(2-Cyclopentylethoxy)-1-benzofur-2-yl]-4-oxo-2-[2-(4-oxo-1,2,3-benzotriazin-3(4H)-yl)ethyl]butanoic acid]
> 40 | > 40 | 2 | > 40 | O=C(CC(CCn1nnc2ccccc2c1=O)C(=O)O)c1cc2cc(OCC3CCCCC3)ccc2o1 (racemic) [Example 8, (+/−)-4-[5-(Cyclohexylmethoxy)-1-benzofur-2-yl]-4-oxo-2-[2-(4-oxo-1,2,3-benzotriazin-3(4H)-yl)ethyl]butanoic acid]
> 40 | > 40 | 4.8 | 4.4 | CCCCCCCOc1ccc2oc(C(=O)CC(CCn3nnc4ccccc4c3=O)C(=O)O)cc2c1 (racemic) [Example 31, (+/−)-4-[5-(Heptyloxy)-1-benzofur-2-yl]-4-oxo-2-[2-(4-oxo-1,2,3-benzotriazin-3(4H)-yl)ethyl]butanoic acid]
> 40 | 29 | 4.6 | 3.3 | O=C(CC(CCn1nnc2ccccc2c1=O)C(=O)O)c1cc2cc(OCCCc3ccccc3)ccc2o1 (racemic) [Example 37, (+/−)-4-Oxo-2-[2-(4-oxo-1,2,3-benzotriazin-3(4H)-yl)ethyl]-4-[5-(3-phenylpropoxy)-1-benzofur-2-yl]butanoic acid]
13 | 29 | 0.62 | > 40 | O=C(CC(CCn1nnc2ccccc2c1=O)C(=O)O)c1cc2cc(OCc3ccc(C(F)(F)F)cc3)ccc2o1 (racemic) [Example 44, (+/−)-4-Oxo-2-[2-(4-oxo-1,2,3-benzotriazin-3(4H)-yl)ethyl]-4-(5-{[4-(trifluoromethyl)benzyl]oxy}-1-benzofur-2-yl)butanoic acid]
> 40 | 20 | 1.6 | 3.8 | O=C(CC(CCn1nnc2ccccc2c1=O)C(=O)O)c1cc2cc(OCc3cccc(Cl)c3)ccc2o1 (racemic) [Example 50, (+/−)-4-{5-[(3-Chlorobenzyl)oxy]-1-benzofur-2-yl}-4-oxo-2-[2-(4-oxo-1,2,3-benzotriazin-3(4H)-yl)ethyl]butanoic acid]
